Results taken from publication PMC7366380, “Discovery of a Potent and Selective Covalent Inhibitor and Activity-Based Probe for the Deubiquitylating Enzyme UCHL1, with Antifibrotic Activity” (Journal of the American Chemical Society, 2020).
Several values for one entry are separate records, joined by “and”; a condition that tells them apart may be missing. Equal entries are not always repeated. One block for each compound: values may come before it.

Tests used:
Assay in all cases: In-cell proteome-wide competitive ABPP, HEK293: other DUBs and proteins
[1] = target: DUBs and other proteins in HEK293 cells (Homo sapiens, UniProt Q93008); conditions: replicates A-C; for Log2 reporter intensity values: USP9X;USP9Y: DMSO substract (FC); for Log2 reporter intensity values: USP9X;USP9Y, DMSO subtracted
[2] = target: T1, DUBs and other proteins in HEK293 cells (Homo sapiens, UniProt Q96K76); conditions: replicates A-C; for Log2 reporter intensity values: USP47: DMSO substract (FC); for Log2 reporter intensity values: USP47, DMSO subtracted
T1 sequence (Q96K76 1-1375): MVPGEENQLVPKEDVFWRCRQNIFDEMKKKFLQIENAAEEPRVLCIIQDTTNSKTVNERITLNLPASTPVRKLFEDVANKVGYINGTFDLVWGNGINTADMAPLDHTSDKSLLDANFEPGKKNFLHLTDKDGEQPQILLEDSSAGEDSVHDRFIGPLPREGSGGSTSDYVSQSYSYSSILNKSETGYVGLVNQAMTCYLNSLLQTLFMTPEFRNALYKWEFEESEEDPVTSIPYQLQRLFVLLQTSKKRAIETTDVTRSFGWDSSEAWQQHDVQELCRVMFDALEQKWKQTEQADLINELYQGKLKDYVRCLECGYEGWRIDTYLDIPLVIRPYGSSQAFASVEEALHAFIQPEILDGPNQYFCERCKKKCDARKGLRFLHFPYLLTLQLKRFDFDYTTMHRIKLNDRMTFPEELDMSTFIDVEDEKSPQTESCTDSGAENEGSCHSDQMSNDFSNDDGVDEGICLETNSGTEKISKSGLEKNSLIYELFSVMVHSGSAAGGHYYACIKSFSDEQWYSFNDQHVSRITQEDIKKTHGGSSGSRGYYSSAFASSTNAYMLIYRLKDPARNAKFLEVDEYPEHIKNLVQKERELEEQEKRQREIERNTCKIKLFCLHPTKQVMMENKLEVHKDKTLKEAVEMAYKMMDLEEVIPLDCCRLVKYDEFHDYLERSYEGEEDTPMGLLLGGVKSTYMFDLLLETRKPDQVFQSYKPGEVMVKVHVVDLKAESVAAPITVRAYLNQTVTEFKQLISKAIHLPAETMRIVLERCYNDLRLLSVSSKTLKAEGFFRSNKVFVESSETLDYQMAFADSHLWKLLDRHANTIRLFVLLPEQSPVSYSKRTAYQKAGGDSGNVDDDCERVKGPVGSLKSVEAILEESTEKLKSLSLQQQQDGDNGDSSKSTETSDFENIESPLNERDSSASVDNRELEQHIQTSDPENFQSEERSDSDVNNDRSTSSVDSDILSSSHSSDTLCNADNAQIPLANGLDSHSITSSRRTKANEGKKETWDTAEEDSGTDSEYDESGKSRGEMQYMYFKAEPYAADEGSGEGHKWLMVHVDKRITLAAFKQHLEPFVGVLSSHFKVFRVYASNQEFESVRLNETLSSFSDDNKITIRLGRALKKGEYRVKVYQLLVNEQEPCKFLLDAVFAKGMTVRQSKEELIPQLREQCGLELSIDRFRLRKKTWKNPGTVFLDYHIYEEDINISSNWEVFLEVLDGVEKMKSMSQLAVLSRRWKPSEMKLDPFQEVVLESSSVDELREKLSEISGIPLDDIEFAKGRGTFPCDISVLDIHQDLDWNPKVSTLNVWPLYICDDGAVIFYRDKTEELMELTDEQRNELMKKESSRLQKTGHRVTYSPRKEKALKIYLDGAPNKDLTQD

[3] = target: DUBs and other proteins in HEK293 cells (Homo sapiens, UniProt Q9UPU5); conditions: replicates A-C; for Log2 reporter intensity values: USP24: DMSO substract (FC); for Log2 reporter intensity values: USP24, DMSO subtracted
[4] = target: DUBs and other proteins in HEK293 cells (Homo sapiens, UniProt Q93009); conditions: replicates A-C; for Log2 reporter intensity values: USP7: DMSO substract (FC); for Log2 reporter intensity values: USP7, DMSO subtracted
[5] = target: DUBs and other proteins in HEK293 cells (Homo sapiens, UniProt O00487); conditions: replicates A-C; for Log2 reporter intensity values: PSMD14: DMSO substract (FC); for Log2 reporter intensity values: PSMD14, DMSO subtracted
[6] = target: DUBs and other proteins in HEK293 cells (Homo sapiens, UniProt Q96BN8); conditions: replicates A-C; for Log2 reporter intensity values: OTULIN: DMSO substract (FC); for Log2 reporter intensity values: OTULIN, DMSO subtracted
[7] = target: T2, DUBs and other proteins in HEK293 cells (Homo sapiens, UniProt Q9Y5K5); conditions: replicates A-C; for Log2 reporter intensity values: UCHL5: competition with ABP 2, DMSO substract (FC); for Log2 reporter intensity values: UCHL5, DMSO subtracted
T2 sequence (Q9Y5K5 1-329): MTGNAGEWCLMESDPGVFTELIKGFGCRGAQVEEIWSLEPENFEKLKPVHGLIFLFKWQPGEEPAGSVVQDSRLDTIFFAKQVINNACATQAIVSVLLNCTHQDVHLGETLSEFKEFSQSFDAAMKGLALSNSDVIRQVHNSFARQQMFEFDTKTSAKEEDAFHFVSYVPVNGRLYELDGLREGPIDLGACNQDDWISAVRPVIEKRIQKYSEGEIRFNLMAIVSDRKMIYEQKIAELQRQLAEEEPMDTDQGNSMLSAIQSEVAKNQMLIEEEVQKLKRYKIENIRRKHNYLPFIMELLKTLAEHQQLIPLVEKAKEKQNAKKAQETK

[8] = 1 at 1 μM, competition with ABP 2
[9] = 1 at 4 μM, competition with ABP 2

DUBs and other proteins in HEK293 cells (Homo sapiens, UniProt Q93008), sequence (Q93008 whole entry): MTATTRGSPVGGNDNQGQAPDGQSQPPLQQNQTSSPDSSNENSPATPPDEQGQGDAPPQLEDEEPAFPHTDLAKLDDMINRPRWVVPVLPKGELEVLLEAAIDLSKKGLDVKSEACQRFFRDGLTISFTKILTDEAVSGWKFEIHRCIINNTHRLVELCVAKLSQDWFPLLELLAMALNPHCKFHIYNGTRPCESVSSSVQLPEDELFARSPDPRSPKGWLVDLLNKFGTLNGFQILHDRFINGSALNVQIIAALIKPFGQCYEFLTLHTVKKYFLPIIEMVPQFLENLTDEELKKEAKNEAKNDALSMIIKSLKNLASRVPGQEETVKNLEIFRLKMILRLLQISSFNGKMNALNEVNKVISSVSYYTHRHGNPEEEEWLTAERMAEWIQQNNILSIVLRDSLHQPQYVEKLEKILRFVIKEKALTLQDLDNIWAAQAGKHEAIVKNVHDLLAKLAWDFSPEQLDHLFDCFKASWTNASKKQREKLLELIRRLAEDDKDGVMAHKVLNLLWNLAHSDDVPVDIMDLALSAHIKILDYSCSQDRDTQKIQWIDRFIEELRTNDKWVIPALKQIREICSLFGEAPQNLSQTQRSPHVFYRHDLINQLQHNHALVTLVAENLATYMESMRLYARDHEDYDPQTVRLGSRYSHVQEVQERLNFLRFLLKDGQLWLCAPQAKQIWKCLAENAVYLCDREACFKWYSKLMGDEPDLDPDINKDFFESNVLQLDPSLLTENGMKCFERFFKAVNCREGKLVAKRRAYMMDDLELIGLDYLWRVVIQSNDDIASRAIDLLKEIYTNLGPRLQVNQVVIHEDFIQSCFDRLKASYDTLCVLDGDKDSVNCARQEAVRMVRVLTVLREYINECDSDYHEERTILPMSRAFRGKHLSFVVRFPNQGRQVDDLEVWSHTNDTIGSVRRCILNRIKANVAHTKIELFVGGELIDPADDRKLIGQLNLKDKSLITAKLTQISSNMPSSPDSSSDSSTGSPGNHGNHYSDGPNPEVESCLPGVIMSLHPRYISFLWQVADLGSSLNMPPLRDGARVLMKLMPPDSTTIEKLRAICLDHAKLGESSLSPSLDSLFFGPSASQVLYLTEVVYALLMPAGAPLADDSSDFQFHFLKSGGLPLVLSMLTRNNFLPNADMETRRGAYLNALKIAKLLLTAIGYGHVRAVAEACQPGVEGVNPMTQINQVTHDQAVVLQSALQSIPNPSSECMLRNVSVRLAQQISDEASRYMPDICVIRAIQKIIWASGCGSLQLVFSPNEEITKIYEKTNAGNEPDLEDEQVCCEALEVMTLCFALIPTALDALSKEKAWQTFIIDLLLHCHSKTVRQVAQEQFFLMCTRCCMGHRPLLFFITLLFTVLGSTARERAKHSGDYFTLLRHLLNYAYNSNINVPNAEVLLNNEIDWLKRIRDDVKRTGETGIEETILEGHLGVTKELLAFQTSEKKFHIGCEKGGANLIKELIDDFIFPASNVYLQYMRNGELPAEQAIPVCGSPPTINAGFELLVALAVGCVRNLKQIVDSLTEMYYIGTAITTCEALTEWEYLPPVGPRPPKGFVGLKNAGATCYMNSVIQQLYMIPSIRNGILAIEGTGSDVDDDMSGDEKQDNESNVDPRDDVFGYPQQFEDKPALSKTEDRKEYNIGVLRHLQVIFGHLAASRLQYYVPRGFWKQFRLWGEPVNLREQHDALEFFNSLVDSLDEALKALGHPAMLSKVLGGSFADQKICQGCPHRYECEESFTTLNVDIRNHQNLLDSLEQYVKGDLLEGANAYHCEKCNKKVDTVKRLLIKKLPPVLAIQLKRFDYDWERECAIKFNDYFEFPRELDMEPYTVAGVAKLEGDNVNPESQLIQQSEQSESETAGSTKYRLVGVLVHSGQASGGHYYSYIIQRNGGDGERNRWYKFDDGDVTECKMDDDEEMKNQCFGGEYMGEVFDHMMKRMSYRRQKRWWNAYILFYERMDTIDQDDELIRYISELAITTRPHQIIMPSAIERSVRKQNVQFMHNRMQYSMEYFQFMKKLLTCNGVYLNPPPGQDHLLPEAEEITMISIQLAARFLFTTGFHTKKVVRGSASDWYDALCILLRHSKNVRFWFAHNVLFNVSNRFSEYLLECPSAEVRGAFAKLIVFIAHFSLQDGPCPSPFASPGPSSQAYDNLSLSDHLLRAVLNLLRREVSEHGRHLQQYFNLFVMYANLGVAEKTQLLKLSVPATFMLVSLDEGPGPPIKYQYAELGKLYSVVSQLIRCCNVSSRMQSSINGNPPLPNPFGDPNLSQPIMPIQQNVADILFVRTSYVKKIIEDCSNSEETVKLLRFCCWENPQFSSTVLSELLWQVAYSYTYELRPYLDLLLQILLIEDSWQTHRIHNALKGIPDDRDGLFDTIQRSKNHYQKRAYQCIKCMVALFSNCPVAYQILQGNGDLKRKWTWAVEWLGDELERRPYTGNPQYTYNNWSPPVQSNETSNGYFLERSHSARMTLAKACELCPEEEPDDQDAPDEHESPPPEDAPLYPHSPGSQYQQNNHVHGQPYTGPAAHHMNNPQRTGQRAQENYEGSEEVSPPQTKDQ
DUBs and other proteins in HEK293 cells (Homo sapiens, UniProt Q93009), sequence (Q93009 whole entry): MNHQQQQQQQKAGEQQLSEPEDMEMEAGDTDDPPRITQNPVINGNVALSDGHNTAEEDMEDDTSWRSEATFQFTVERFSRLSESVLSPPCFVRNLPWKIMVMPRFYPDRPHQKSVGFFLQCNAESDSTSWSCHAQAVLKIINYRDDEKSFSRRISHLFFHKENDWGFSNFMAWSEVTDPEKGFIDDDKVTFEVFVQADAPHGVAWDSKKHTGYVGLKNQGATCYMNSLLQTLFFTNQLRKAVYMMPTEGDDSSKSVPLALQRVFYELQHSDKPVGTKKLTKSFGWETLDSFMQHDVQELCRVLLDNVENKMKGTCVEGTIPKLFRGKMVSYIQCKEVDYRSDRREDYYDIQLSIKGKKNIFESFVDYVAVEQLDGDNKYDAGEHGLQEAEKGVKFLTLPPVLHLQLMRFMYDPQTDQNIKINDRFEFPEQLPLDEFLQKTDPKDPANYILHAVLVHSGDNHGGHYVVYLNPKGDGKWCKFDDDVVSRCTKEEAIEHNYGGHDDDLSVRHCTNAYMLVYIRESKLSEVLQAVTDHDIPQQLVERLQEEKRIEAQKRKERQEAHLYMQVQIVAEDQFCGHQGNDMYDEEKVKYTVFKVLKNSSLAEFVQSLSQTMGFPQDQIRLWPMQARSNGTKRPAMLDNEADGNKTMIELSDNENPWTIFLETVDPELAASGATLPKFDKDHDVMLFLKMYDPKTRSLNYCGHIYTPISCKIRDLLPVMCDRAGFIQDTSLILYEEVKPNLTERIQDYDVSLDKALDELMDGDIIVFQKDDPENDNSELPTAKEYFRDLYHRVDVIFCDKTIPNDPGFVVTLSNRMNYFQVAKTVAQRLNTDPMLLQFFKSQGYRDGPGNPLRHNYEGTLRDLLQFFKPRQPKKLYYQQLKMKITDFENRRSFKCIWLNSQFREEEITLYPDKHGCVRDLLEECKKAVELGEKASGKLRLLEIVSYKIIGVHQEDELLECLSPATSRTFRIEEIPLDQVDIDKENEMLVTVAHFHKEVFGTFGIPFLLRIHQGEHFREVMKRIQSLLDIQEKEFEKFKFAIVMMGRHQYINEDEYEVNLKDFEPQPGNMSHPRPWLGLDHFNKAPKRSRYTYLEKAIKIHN
DUBs and other proteins in HEK293 cells (Homo sapiens, UniProt Q96BN8), sequence (Q96BN8 whole entry): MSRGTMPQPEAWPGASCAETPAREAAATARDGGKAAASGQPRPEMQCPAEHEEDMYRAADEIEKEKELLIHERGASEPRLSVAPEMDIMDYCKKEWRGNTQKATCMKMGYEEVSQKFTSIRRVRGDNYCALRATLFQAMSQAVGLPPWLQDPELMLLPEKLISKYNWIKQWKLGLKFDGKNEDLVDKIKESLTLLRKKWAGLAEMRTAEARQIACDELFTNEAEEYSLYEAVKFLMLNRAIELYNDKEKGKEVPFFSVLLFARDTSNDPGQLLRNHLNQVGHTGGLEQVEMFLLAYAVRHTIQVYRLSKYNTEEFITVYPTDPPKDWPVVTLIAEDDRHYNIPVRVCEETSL
DUBs and other proteins in HEK293 cells (Homo sapiens, UniProt O00487), sequence (O00487 whole entry): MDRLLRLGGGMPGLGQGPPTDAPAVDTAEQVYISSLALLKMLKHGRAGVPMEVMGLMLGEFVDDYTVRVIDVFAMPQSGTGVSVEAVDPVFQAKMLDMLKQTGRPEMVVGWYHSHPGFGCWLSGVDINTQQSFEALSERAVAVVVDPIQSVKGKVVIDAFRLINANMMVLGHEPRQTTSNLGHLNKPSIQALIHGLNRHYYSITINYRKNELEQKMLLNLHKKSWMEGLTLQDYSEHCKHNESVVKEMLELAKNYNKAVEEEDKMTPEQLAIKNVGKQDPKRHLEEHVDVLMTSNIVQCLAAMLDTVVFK

Log2 reporter intensity values: USP9X;USP9Y [1, 8]: 1.022 (2×) and 0.9739
Log2 reporter intensity values: USP9X;USP9Y [1, 9]: 0.949 and 1.006 and 0.9815
Log2 reporter intensity values ([1]; 1_1 μM): 0.0219 and 0.02206 and -0.02613
Log2 reporter intensity values ([1]; 1_4 μM): -0.05104 and 0.005497 and -0.01849
Log2 reporter intensity values ([1]; 1 at 1 μM): 0.0313 and 0.03153 and -0.03815
Log2 reporter intensity values ([1]; 1 at 4 μM): -0.07554 and 0.007953 and -0.02689
Log2 reporter intensity values: USP47 [2, 8]: 0.973 and 1.08 and 1.022
Log2 reporter intensity values: USP47 [2, 9]: 1.072 and 1.012 and 0.9583
Log2 reporter intensity values ([2]; 1_1 μM): -0.02716 and 0.07955 and 0.02151
Log2 reporter intensity values ([2]; 1_4 μM): 0.07173 and 0.01208 and -0.04184
Log2 reporter intensity values ([2]; 1 at 1 μM): -0.03956 and 0.1106 and 0.03085
Log2 reporter intensity values ([2]; 1 at 4 μM): 0.1001 and 0.01747 and -0.0615
Log2 reporter intensity values: USP24 [3, 8]: 1.001 and 1.09 and 1.248
Log2 reporter intensity values: USP24 [3, 9]: 0.9741 and 0.9874 and 0.9877
Log2 reporter intensity values ([3]; 1_1 μM): -0.002058 and 0.08693 and 0.2444
Log2 reporter intensity values ([3]; 1_4 μM): -0.02929 and -0.01601 and -0.01571
Log2 reporter intensity values ([3]; 1 at 1 μM): 0.00188 and 0.1247 and 0.3193
Log2 reporter intensity values ([3]; 1 at 4 μM): -0.0379 and -0.01836 and -0.01793
Log2 reporter intensity values: USP7 [4, 8]: 1.015 and 0.998 and 1.012
Log2 reporter intensity values: USP7 [4, 9]: 1.024 and 0.9908 and 1.009
Log2 reporter intensity values ([4]; 1_1 μM): 0.01464 and -0.002291 and 0.01166
Log2 reporter intensity values ([4]; 1_4 μM): 0.02367 and -0.009481 and 0.008925
Log2 reporter intensity values ([4]; 1 at 1 μM): 0.02137 and -0.002902 and 0.01712
Log2 reporter intensity values ([4]; 1 at 4 μM): 0.03415 and -0.01333 and 0.01322
Log2 reporter intensity values: PSMD14 [5, 8]: 1.038 and 0.9518 and 1.018
Log2 reporter intensity values: PSMD14 [5, 9]: 1.04 and 0.9939 and 0.9281
Log2 reporter intensity values ([5]; 1_1 μM): 0.0358 and -0.05091 and 0.01579
Log2 reporter intensity values ([5]; 1_4 μM): 0.03701 and -0.008736 and -0.0746
Log2 reporter intensity values ([5]; 1 at 1 μM): 0.05445 and -0.07134 and 0.02638
Log2 reporter intensity values ([5]; 1 at 4 μM): 0.05612 and -0.008793 and -0.1077
Log2 reporter intensity values: OTULIN [6, 8]: 1.158 and 1.113 and 1.037
Log2 reporter intensity values: OTULIN [6, 9]: 1.068 and 1.004 and 1.156
Log2 reporter intensity values ([6]; 1_1 μM): 0.1579 and 0.1121 and 0.03603
Log2 reporter intensity values ([6]; 1_4 μM): 0.06743 and 0.003361 and 0.1557
Log2 reporter intensity values ([6]; 1 at 1 μM): 0.2122 and 0.154 and 0.0518
Log2 reporter intensity values ([6]; 1 at 4 μM): 0.09485 and 0.0056 and 0.2094
Log2 reporter intensity values: UCHL5 ([7]; 1 at 1 μM): 1.121 and 1.059 and 1.084
Log2 reporter intensity values: UCHL5 ([7]; 1 at 4 μM): 1.068 (2×) and 1.07
Log2 reporter intensity values ([7]; 1_1 μM): 0.1208 and 0.05828 and 0.08364
Log2 reporter intensity values ([7]; 1_4 μM): 0.06718 and 0.06755 and 0.06936
Log2 reporter intensity values ([7]; 1 at 1 μM): 0.1653 and 0.08265 and 0.1168
Log2 reporter intensity values ([7]; 1 at 4 μM): 0.09472 and 0.09521 and 0.09766
Compound: N#CN1CCC[C@H]1C(=O)N1CCc2c(-c3c[nH]c4ncccc34)cccc21 [Compound 1]

Log2 reporter intensity values: USP9X;USP9Y ([1]; 20 nM ABP 2 alone): 0.9211 and 0.9416 and 0.9589
Log2 reporter intensity values: USP47 ([2]; 20 nM ABP 2 alone): 0.9076 and 0.9784 and 0.8828
Log2 reporter intensity values: USP24 ([3]; 20 nM ABP 2 alone): 1.118 and 1.126 and 1.127
Log2 reporter intensity values: USP7 ([4]; 20 nM ABP 2 alone): 0.9183 and 1.036 and 1.009
Log2 reporter intensity values: PSMD14 ([5]; 20 nM ABP 2 alone): 0.9494 and 1.033 and 1.015
Log2 reporter intensity values: OTULIN ([6]; 20 nM ABP 2 alone): 0.9844
Compound: C#Cc1cnc2[nH]cc(-c3cccc4c3CCN4C(=O)[C@@H]3CCCN3C#N)c2c1 [Compound 2]
Log2 reporter intensity values ([1]; 20 nM ABP 2): -0.08683 and -0.06047 and -0.07892 and -0.05844 and -0.04108
Log2 reporter intensity values ([2]; 20 nM ABP 2): -0.1398 and -0.03153 and -0.1799 and -0.09247 and -0.02173 and -0.1173
Log2 reporter intensity values ([3]; 20 nM ABP 2): 0.1605 and 0.1713 and 0.1729 and 0.1143 and 0.1227 and 0.1239
Log2 reporter intensity values ([4]; 20 nM ABP 2): 0.05058 and 0.01361 and -0.082 and 0.009195
Log2 reporter intensity values ([5]; 20 nM ABP 2): -0.07484 and 0.0464 and 0.02103 and -0.05321 and 0.03002 and 0.01203
Log2 reporter intensity values ([6]; 20 nM ABP 2): 0.01067 and 0.1122 and -0.02265 and 0.006896 and 0.08034 and -0.01611
